Test results: patent US10670605B2, “Cysteine reactive probes and uses thereof” (The Scripps Research Institute, priority 2015, dated 2020)
“Also recorded” adds a separate entry of the source. One block for each compound: values may come before it.

Assays:
Assay in all cases: Competitive isoTOP-ABPP in situ (fragment-treated cells)
[1] = target: cysteines in MDA-MB-231 and Ramos cells (Homo sapiens, UniProt Q8NFF5); type: cell-based
[2] = target: cysteines in MDA-MB-231 and Ramos cells (Homo sapiens, UniProt Q9Y5S2); type: cell-based
cysteines in MDA-MB-231 and Ramos cells (Homo sapiens, UniProt Q9Y5S2), sequence (Q9Y5S2 whole entry): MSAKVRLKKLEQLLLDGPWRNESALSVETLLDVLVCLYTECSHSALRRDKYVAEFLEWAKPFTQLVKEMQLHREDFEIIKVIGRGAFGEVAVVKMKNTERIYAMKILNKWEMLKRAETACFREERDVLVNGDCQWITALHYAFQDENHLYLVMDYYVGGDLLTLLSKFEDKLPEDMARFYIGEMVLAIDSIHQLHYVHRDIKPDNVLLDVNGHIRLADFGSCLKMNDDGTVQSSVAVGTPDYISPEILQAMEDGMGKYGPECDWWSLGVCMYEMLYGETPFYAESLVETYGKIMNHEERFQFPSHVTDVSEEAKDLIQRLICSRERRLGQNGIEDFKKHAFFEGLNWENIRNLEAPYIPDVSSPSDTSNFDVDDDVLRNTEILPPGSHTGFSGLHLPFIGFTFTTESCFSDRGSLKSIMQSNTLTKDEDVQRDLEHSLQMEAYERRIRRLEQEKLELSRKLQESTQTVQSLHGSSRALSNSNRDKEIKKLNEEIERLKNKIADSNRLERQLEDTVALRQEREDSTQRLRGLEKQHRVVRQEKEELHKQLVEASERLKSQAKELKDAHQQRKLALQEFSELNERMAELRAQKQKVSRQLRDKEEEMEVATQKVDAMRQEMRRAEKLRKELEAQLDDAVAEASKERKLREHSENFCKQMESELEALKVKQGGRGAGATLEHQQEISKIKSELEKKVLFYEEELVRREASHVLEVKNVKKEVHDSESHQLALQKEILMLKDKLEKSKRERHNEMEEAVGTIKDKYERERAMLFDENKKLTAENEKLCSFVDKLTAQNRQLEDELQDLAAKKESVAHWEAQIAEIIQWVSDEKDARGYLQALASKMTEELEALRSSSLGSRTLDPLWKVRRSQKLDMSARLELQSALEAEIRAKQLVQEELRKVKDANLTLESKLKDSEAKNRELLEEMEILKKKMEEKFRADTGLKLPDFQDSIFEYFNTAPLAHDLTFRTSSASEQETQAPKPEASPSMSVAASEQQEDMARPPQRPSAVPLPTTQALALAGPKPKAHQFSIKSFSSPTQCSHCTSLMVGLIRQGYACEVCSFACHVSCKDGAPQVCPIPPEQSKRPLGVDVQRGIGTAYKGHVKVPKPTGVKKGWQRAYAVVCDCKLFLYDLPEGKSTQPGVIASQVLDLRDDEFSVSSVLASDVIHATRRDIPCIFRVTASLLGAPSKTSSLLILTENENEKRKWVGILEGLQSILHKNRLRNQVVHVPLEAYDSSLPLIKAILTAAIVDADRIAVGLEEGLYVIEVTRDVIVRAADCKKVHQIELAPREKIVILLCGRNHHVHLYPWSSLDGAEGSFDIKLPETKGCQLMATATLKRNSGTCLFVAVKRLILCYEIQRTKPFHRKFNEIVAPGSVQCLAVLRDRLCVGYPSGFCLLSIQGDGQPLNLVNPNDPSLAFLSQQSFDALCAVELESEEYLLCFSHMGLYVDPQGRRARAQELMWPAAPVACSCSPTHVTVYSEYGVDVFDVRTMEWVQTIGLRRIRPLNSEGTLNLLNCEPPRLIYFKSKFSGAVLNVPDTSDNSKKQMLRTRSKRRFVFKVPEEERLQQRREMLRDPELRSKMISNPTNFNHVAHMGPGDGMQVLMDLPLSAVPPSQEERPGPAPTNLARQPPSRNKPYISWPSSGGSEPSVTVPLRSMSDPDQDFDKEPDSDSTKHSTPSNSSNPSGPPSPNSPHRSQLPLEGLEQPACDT

[3] = target: cysteines in MDA-MB-231 and Ramos cells (Homo sapiens, UniProt Q5UIP0); type: cell-based
[4] = target: T1, cysteines in MDA-MB-231 and Ramos cells (Homo sapiens, UniProt Q9NXJ5); type: cell-based; conditions: 200 μM, insitu
T1 sequence (Q9NXJ5 1-209): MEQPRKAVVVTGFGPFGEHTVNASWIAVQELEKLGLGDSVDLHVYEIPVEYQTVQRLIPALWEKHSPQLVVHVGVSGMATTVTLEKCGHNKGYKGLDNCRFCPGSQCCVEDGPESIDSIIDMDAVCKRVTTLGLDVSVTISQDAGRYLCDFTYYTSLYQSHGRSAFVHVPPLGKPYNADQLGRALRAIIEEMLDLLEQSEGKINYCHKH

[5] = target: T2, cysteines in MDA-MB-231 and Ramos cells (Homo sapiens, UniProt Q16667); type: cell-based; conditions: 200 μM, insitu
T2 sequence (Q16667 1-212): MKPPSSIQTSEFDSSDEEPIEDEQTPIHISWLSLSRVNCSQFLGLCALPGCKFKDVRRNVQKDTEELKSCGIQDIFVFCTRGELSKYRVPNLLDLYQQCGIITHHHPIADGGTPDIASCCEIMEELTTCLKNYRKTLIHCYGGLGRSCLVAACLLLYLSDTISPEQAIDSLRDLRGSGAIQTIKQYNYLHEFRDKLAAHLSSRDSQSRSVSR

[6] = target: cysteines in MDA-MB-231 and Ramos cells (Homo sapiens, UniProt Q8IU81); type: cell-based; conditions: 200 μM, insitu, 231
cysteines in MDA-MB-231 and Ramos cells (Homo sapiens, UniProt Q8IU81), sequence (Q8IU81 whole entry): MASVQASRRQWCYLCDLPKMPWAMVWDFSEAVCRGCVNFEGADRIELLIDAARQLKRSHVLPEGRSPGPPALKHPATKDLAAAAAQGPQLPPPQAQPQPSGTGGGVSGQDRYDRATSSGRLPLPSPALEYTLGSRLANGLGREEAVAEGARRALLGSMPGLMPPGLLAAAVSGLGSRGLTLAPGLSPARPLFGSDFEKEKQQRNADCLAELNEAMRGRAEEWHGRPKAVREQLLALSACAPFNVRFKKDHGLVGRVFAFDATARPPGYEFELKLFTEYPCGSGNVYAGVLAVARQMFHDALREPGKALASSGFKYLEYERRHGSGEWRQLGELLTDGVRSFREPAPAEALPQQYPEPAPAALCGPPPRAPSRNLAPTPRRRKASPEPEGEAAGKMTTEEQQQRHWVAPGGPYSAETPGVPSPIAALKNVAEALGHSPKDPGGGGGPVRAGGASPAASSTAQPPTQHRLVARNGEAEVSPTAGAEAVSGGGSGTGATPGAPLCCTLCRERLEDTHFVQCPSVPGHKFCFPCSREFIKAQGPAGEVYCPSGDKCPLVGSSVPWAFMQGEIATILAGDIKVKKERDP

[7] = target: cysteines in MDA-MB-231 and Ramos cells (Homo sapiens, UniProt O00541); type: cell-based
cysteines in MDA-MB-231 and Ramos cells (Homo sapiens, UniProt O00541), sequence (O00541 whole entry, looked up): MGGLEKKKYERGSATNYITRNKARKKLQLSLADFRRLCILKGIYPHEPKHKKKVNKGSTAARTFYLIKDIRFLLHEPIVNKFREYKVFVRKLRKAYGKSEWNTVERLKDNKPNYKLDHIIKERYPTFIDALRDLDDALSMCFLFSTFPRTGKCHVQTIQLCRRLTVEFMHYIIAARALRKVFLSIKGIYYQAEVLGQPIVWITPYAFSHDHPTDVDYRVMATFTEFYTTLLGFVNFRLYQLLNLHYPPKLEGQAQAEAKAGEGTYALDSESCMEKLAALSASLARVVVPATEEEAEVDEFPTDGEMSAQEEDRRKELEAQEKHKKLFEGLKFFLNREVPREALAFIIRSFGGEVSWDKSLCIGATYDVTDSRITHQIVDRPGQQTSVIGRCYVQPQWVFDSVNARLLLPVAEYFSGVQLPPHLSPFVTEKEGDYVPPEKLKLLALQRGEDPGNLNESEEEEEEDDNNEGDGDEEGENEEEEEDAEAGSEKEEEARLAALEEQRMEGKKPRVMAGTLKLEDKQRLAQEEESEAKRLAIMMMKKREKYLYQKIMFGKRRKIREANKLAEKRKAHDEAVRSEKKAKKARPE

[8] = tested on: cysteines in MDA-MB-231 and Ramos cells; type: cell-based, human
[9] = target: T3, cysteines in MDA-MB-231 and Ramos cells (Homo sapiens, UniProt Q9GZR2); type: cell-based; conditions: 200 μM, insitu
T3 sequence (Q9GZR2 1-422): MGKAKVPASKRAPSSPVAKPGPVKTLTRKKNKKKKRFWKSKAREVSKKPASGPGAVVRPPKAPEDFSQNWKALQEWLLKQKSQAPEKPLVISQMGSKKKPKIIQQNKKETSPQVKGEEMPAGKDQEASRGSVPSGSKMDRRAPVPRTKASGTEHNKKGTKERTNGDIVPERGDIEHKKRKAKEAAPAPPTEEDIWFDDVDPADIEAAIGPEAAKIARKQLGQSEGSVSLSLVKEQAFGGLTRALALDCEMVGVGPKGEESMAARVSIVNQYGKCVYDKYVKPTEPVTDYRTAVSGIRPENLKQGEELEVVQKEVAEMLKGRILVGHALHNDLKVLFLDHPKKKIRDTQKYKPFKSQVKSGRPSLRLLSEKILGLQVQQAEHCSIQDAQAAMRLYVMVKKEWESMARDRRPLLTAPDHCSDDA

[10] = target: cysteines in MDA-MB-231 and Ramos cells (Homo sapiens, UniProt Q00610); type: cell-based; conditions: 200 μM, insitu, 231
cysteines in MDA-MB-231 and Ramos cells (Homo sapiens, UniProt Q00610), sequence (Q00610 whole entry): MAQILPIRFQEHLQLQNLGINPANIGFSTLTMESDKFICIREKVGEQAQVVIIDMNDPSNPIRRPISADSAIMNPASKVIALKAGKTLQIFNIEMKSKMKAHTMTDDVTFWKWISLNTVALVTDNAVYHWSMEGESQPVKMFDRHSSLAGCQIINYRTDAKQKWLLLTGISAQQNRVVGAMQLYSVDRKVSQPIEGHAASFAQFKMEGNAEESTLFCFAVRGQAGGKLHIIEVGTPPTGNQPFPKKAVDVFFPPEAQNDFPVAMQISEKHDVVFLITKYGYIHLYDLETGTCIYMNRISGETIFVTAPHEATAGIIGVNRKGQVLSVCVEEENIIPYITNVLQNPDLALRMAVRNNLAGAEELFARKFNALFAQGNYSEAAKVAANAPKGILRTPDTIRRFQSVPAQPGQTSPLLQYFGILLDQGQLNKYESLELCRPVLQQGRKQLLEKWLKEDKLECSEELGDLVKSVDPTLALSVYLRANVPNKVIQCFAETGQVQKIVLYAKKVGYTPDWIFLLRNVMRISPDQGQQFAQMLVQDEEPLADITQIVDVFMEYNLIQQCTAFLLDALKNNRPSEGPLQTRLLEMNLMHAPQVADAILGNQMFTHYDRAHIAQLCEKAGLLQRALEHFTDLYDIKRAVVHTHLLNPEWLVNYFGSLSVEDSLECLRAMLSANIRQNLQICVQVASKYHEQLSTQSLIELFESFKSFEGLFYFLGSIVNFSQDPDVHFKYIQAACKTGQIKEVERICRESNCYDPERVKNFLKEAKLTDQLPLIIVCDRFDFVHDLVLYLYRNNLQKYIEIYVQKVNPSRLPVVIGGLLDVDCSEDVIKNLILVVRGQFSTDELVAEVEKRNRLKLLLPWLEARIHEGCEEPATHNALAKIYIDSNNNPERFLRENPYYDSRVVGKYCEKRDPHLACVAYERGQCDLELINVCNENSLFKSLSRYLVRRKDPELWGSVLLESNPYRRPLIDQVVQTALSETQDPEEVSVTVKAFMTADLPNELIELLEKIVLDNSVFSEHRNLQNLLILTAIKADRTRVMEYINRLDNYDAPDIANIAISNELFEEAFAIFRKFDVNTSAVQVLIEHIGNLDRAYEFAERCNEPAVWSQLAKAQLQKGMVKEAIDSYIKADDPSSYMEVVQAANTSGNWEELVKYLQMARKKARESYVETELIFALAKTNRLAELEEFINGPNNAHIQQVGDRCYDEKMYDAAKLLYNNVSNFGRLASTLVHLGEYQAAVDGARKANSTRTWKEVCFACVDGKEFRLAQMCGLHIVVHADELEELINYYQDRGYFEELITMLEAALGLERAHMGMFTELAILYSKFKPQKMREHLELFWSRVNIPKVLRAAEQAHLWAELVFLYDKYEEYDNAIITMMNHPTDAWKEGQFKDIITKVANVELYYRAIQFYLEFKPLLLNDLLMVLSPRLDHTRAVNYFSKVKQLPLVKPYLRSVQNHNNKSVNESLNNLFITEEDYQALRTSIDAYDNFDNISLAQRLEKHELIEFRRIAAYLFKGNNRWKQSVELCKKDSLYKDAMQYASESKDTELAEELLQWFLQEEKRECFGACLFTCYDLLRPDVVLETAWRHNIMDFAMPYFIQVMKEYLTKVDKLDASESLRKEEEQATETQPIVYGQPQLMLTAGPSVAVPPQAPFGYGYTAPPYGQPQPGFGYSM

[11] = target: T4, cysteines in MDA-MB-231 and Ramos cells (Homo sapiens, UniProt Q02556); type: cell-based; conditions: 200 μM, insitu, ramos
T4 sequence (Q02556 1-426): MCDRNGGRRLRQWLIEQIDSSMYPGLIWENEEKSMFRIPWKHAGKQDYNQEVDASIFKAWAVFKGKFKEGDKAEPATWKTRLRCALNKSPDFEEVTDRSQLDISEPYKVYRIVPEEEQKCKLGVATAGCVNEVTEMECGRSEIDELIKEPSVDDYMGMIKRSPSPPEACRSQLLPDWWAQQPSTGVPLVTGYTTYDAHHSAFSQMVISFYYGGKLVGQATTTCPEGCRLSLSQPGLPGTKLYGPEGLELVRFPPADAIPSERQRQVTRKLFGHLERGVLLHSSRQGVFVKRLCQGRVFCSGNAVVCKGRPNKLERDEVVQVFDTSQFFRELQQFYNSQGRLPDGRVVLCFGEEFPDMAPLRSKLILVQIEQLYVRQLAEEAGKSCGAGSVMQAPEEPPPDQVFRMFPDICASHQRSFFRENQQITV

[12] = target: T5, cysteines in MDA-MB-231 and Ramos cells (Homo sapiens, UniProt O95833); type: cell-based; conditions: 200 μM, insitu, 231
T5 sequence (O95833 1-236): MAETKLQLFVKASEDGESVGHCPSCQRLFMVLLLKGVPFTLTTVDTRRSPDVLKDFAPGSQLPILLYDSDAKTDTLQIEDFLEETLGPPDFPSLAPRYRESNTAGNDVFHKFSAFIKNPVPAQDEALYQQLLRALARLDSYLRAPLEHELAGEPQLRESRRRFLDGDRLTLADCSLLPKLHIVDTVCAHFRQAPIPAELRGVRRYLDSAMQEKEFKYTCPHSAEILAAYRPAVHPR

[13] = target: T6, cysteines in MDA-MB-231 and Ramos cells (Homo sapiens, UniProt Q9BTE3); type: cell-based; conditions: 200 μM, insitu
T6 sequence (Q9BTE3 1-642): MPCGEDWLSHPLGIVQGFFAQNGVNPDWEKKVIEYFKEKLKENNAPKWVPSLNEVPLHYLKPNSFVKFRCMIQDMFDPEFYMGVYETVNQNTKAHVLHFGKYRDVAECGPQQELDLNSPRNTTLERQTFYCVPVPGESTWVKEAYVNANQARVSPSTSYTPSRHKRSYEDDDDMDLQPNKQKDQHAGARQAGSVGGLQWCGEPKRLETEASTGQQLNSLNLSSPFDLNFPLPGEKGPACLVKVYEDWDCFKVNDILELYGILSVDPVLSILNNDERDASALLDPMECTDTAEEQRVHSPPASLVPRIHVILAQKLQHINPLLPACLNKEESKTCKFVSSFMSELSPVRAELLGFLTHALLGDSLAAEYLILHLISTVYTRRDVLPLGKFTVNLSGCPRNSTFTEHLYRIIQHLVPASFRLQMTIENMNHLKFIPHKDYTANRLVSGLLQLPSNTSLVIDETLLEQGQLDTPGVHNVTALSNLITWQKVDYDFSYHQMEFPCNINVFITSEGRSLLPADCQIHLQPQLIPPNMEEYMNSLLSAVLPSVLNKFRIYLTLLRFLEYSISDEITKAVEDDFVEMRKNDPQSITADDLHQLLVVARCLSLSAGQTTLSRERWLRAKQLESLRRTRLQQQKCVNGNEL

cysteines in MDA-MB-231 and Ramos cells (Homo sapiens, UniProt Q8NFF5), sequence (Q8NFF5 18-587): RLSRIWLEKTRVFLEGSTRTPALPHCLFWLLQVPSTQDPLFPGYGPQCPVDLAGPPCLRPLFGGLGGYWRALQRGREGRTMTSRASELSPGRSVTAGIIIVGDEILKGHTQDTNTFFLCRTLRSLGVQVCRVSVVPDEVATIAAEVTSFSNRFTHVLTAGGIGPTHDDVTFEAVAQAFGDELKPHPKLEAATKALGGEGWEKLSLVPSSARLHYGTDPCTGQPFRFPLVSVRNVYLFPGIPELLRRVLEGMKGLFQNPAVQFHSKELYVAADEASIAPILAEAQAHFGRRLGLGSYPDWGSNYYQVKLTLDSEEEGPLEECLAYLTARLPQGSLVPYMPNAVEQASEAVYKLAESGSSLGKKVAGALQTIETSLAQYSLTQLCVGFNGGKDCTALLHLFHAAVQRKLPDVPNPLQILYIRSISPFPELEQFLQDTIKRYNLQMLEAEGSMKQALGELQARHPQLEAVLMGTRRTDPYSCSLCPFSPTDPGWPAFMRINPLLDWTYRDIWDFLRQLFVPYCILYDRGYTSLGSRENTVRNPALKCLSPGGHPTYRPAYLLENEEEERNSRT

isoTOP-ABPP reactivity Q8NFF5_C499 FLAD1 ([1]; 200 μM, insitu, 231): 6.2
isoTOP-ABPP reactivity Q9Y5S2_C1517 CDC42BPB ([2]; 200 μM, insitu, 231): 20.0
Structure (SMILES): COc1ccc2c(c1)CCCN2C(=O)CCl [compound 2]

isoTOP-ABPP reactivity Q5UIP0_C2298 RIF1 ([3]; 100 μM in situ 231): 20.0
isoTOP-ABPP reactivity Q9Y5S2_C1517 CDC42BPB ([2]; 100 μM in situ 231): 20.0
Structure (SMILES): COc1ccc(C2CC(c3cccs3)=NN2C(=O)CCl)cc1 (stereo not shown) [compound 4]

isoTOP-ABPP ratio, cysteine Q5UIP0_C2298 ([3]; 200 μM, insitu, 231): 20.0
isoTOP-ABPP ratio, cysteine Q9NXJ5_C149 ([4]; ramos): 11.0
isoTOP-ABPP ratio, cysteine Q16667_C39 [5]; 231: 2.3
isoTOP-ABPP ratio, cysteine Q8IU81_C363 [6]: 5.9
Structure (SMILES): O=C(CCl)N1CCN(S(=O)(=O)c2ccccc2F)CC1 [compound 10]

isoTOP-ABPP ratio, cysteine Q8NFF5_C499 ([1]; 100 μM in situ 231): 16
isoTOP-ABPP ratio, cysteine Q5UIP0_C2298 ([3]; 100 μM in situ 231): 1.3
isoTOP-ABPP ratio, cysteine Q9Y5S2_C1517 ([2]; 100 μM in situ 231): 1.2
isoTOP-ABPP ratio, cysteine O00541_C272 ([7]; 100 μM in situ 231): 1.0
Structure (SMILES): Cn1cc(S(=O)(=O)N2CCOCC2)cc1C(=O)NC(=O)CCl [compound 11]
isoTOP-ABPP ratio, cysteine E2QRD5_C183 ([8]; 100 μM in situ 231): 0.9
proteomic reactivity in situ (in words) ([8]; in situ, 2 h, versus in vitro): notably devoid of activity in situ; also recorded: notably lower reactivity in situ versus in vitro

isoTOP-ABPP ratio, cysteine Q9NXJ5_C149 [4]; 231: 3.9
isoTOP-ABPP ratio, cysteine Q9GZR2_C382 [9]; 231: 20.0
isoTOP-ABPP ratio, cysteine Q00610_C870 [10]: 0.9
Structure (SMILES): O=C(CCl)NC(=O)NC12CC3CC(CC(C3)C1)C2 [compound 12]

isoTOP-ABPP ratio, cysteine Q9NXJ5_C149 ([4]; ramos): 20.0
isoTOP-ABPP ratio, cysteine Q9GZR2_C382 ([9]; ramos): 0.9
isoTOP-ABPP ratio, cysteine Q16667_C39 ([5]; ramos): 1.2
isoTOP-ABPP ratio, cysteine Q00610_C870 [10]: 1.7
isoTOP-ABPP ratio, cysteine O00541_C272 ([7]; 200 μM, insitu, 231): 1.4
isoTOP-ABPP ratio, cysteine Q02556_C306 [11]: 1.5
Structure (SMILES): O=C(CCl)NCCc1c[nH]c2ccccc12 [compound 13]

isoTOP-ABPP ratio, cysteine Q5UIP0_C2298 ([3]; 200 μM, insitu, 231): 0.9
isoTOP-ABPP ratio, cysteine O95833_C22 [12]: 1.0
isoTOP-ABPP ratio, cysteine Q16667_C39 [5]; 231: 0.8
Structure (SMILES): O=C(CCl)NC12CC3CC(CC(C3)C1)C2 [compound 21]
isoTOP-ABPP ratio, cysteine E2QRD5_C183 ([8]; 200 μM, insitu, 231): 0.8

isoTOP-ABPP ratio Q9BTE3_C325 [13]; 231: 1.0
Structure (SMILES): COc1ccccc1OCCNC(=O)CCl [compound 28]

isoTOP-ABPP ratio Q8NFF5_C499 ([1]; 200 μM, insitu, ramos): 3.4
isoTOP-ABPP ratio Q16667_C39 ([5]; ramos): 1.7
isoTOP-ABPP ratio, Q02556_C306 [11]: 1.4
Structure (SMILES): O=C(CCl)N1CCN(CC(=O)N2CCOCC2)CC1 [compound 29]

isoTOP-ABPP ratio Q9BTE3_C325 [13]; 231: 1.9
isoTOP-ABPP ratio Q9BTE3_C325 ([13]; ramos): 3.5
isoTOP-ABPP ratio O95833_C22 [12]: 0.5
isoTOP-ABPP ratio Q8IU81_C363 [6]: 0.7
isoTOP-ABPP ratio, Q02556_C306 [11]: 2.0
Structure (SMILES): C=CC(=O)N(Cc1cccnc1)c1cc(C(F)(F)F)cc(C(F)(F)F)c1 [compound 31]
isoTOP-ABPP ratio E2QRD5_C183 ([8]; 200 μM, insitu, 231): 0.8

isoTOP-ABPP ratio Q9BTE3_C325 [13]; 231: 2.2
isoTOP-ABPP ratio Q00610_C870 [10]: 20.0
isoTOP-ABPP ratio Q8IU81_C363 [6]: 1.3
Structure (SMILES): C=CC(=O)Nc1cc(F)c(N2CCN(C(=O)OC(C)(C)C)CC2)c(F)c1 [compound 38]

isoTOP-ABPP ratio Q9BTE3_C325 [13]; 231: 0.6
isoTOP-ABPP ratio Q9Y5S2_C1517 ([2]; 200 μM, insitu, 231): 0.4
isoTOP-ABPP ratio, O00541_C272 ([7]; 200 μM, insitu, 231): 0.9
Structure (SMILES): Cc1ccc(C=C(C#N)C(=O)NCCN2CCOCC2)cc1 [compound 41]
isoTOP-ABPP ratio E2QRD5_C183 ([8]; 200 μM, insitu, 231): 0.5

isoTOP-ABPP ratio Q9BTE3_C325 [13]; 231: 20.0
isoTOP-ABPP ratio Q9GZR2_C382 [9]; 231: 20.0
isoTOP-ABPP ratio O95833_C22 [12]: 13.8
isoTOP-ABPP ratio Q9Y5S2_C1517 ([2]; 200 μM, insitu, 231): 20.0
isoTOP-ABPP ratio Q8IU81_C363 [6]: 1.7
Structure (SMILES): CC1CCc2ccccc2N1C(=O)CCl (stereo not shown) [compound 45]
